Measurements from patent US12274687B2, “Methods for treating ascites” (Martin Pharmaceuticals, Inc., priority 2021, dated 2025).
“Also recorded” adds a separate entry of the source.

Columns and labels:
[1] = test system: cirrhotic subjects with RA; test: Open-label, single-arm clinical study of docarpamine on ascites formation (frequency of LVP, volume of ascitic fluid drained); assay type: in vivo, human
Description: An open-label, single-arm study in which each subject serves as his/her own control is conducted. The study assesses the effect of DCP treatment on ascites formation in cirrhotic subjects with RA, by examining the frequency of LVP and the volume of ascitic fluid drained. All subjects participate in a 90-day open-label treatment period. […] Ascites history (relevant medications, LVP dates, and volume of drained fluid) for the 90 days prior to treatment and the 90 days after treatment are collected and used for comparison with on-treatment frequency and volume. The study population consists of cirrhotic patients between 18 and 70 years of age, inclusive, with refractory ascites, subject to the following inclusion and exclusion criteria. • Patients 18 years to 70 years of age. • Documented cirrhosis of the liver. • Refractory ascites, defined as ascites not manageable with diuretics and diet restriction, managed with periodic large volume therapeutic paracentesis. • Patients must have therapeutic […] 3 days prior to enrollment and a documented minimum of 3 additional therapeutic […] 90 days prior to enrollment, with at least 1 every 30 days. • Outpatient, with expected survival of at least 6 months. • Willing and able to complete an informed consent form.

RA patients = settings: small cohort of RA patients; cited from earlier work
[2] = administered orally; high rates of metabolism in gut / small intestine and liver; cited from earlier work
patients with RA = settings: cited from earlier work
[3] = high dose 4500 mg per day (1500 mg 3 times per day), 90 days treatment, on average, vs 90 days prior to treatment

Row | Structure (SMILES) | effects on LVP, ascites volume and renal markers at low dose ([1]; 750 mg 3 times per day (2250 mg per day), 90 days: effects not observed) | time during which patients do not require LVP ([1]; 4500 mg per day group, some patients / others) | other markers of improved renal function ([1]; 4500 mg per day, 90 days) | sodium excretion ([1]; 4500 mg per day, 90 days) | Renin and/or aldosterone levels ([1]; 4500 mg per day, many patients, in some cases to normal) | urinary output on treatment ([1]; 4500 mg per day, most patients, from 500-1000 ml before, printed '1500-2000 ml or more') [mL] | frequency of LVP over 90 days [1, 3] | volume of ascites removed over 90 days [1, 3] | frequency and volume of LVP once a patient stops treatment ([1]; off-treatment follow-up after 90 days at 4500 mg per day) | persistence of the decrease in LVP after stopping treatment ([1]; off-treatment follow-up, before beginning to increase again) | efficacy in refractory ascites (RA patients) | oral bioavailability [2] | changes of blood urea nitrogen, creatinine, creatinine clearance, blood pressure, pulse rate, serum sodium, serum aldosterone and GFR (patients with RA) | effective renal plasma flow (patients with RA)
1 | CCOC(=O)Oc1ccc(CCNC(=O)[C@H](CCSC)NC(C)=O)cc1OC(=O)OCC [docarpamine] | only in the high dose | more than one month; also recorded: more than two months | respond positively | Increased | reduced | 1500 to 2000 | reduced by more than half | reduced by more than half | greater decreases | one or more months | effective |  |  | 
2 | NCCc1ccc(O)c(O)c1 [dopamine] |  |  |  |  |  |  |  |  |  |  |  | not orally bioavailable | no difference | Positive effects
